Values after ≈ are worked out from the molar mass of the structure shown.

Data set [1] has as its target T1, Complement C1s subcomponent (Homo sapiens, UniProt P09871).
T1 sequence (P09871 whole entry): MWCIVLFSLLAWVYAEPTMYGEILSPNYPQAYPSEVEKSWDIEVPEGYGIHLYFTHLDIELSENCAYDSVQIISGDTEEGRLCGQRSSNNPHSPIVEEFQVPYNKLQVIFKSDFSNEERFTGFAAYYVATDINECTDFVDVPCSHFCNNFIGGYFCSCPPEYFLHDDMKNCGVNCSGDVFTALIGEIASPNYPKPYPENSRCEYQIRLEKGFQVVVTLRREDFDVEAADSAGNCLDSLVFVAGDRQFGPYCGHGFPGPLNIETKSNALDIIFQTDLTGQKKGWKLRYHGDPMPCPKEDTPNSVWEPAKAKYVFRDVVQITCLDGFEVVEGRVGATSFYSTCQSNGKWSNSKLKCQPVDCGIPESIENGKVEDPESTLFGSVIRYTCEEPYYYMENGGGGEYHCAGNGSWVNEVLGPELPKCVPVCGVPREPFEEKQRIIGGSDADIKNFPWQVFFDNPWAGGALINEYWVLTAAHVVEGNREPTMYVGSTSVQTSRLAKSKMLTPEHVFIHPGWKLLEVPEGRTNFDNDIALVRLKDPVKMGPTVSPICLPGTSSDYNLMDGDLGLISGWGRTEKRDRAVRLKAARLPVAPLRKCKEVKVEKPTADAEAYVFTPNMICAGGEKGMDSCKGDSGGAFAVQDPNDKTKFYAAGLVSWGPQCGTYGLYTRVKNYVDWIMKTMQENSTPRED
Nature of the data set: Inhibition of Complement C1s subcomponent.

Data set [2] in a line: Volume of distribution in rat at 2 mg/kg, iv. It is filed as ADME, organism-based. The arrangement: dose 2 mg/kg, route intravenous. The settings on record: in vivo.
For the next data set, the target named is hERG (KCNH2) (Homo sapiens, UniProt Q12809). The data set is described as follows: Inhibition of human ERG at 10 uM by patch clamp assay.
Data set [3] in a line: Clearance in rat at 2 mg/kg, iv. The format is ADME, organism-based. On the set-up: dose 2 mg/kg, route intravenous. The settings on record: in vivo.
The nature of data set [4]: Half life in rat at 2 mg/kg, iv. It is filed as ADME, organism-based. The arrangement: dose 2 mg/kg, route intravenous. Particulars: in vivo.
Data set [5] is described as follows: Aqueous solubility at physiological pH. The format is physicochemical.

hERG (KCNH2), sequence (Q12809 whole entry): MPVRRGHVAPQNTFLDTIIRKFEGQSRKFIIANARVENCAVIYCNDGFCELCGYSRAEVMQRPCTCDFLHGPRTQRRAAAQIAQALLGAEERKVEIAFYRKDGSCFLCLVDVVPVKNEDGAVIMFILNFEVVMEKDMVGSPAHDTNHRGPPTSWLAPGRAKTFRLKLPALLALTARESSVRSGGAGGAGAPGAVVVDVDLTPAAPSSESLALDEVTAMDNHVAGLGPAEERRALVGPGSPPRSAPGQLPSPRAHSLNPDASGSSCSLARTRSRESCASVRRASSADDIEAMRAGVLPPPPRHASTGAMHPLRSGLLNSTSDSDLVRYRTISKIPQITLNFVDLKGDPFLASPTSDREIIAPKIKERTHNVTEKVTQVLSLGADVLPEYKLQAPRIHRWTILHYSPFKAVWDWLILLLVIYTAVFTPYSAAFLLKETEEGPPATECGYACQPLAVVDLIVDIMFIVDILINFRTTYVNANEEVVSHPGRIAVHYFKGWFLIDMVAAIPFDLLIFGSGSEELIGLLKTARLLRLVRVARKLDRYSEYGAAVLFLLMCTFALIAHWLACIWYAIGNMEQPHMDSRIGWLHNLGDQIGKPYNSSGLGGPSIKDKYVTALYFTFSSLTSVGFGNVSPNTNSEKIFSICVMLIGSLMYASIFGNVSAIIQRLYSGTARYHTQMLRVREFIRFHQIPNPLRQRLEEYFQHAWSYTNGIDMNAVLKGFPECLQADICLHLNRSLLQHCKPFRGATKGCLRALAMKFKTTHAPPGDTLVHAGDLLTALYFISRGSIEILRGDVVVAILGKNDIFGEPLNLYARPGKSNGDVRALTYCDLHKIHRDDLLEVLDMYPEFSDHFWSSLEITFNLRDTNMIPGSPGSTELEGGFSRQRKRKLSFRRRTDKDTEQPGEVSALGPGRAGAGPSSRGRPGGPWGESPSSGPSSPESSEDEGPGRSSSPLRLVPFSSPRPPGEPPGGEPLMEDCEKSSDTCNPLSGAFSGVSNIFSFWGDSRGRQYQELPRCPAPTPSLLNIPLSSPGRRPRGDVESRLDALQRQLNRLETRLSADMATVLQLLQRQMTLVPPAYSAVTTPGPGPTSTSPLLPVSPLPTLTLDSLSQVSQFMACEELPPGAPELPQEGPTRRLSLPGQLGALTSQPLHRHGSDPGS

For the compound `COc1ccccc1-c1cccc(S(=O)(=O)c2cc(C(=N)N)sc2SC)c1`, the Ki in data set [1] worked out at 610 nM.
For `C=Cc1ccccc1-c1cccc(S(=O)(=O)c2cc(C(=N)N)sc2SC)c1`, the affinity in data set [1] corresponds to a Ki of 140 nM.
Consider `CSc1sc(C(=N)N)cc1S(=O)(=O)c1cccc(-c2cccc(C)n2)c1`, for which the Vd in data set [2] was 15 L/kg. This compound also returned an inhibition at 10 µM against hERG (KCNH2) of 66%. Besides, in data set [3], the clearance amounted to 283 mL/min/kg. The compound further had a Ki in data set [1] of 40 nM. In data set [4], this compound had a half-life of 2 h. In addition, in data set [5], the solubility came to 22 µM (≈ 8.88 µg/mL).
For `COc1ccc(-c2cccc(S(=O)(=O)c3cc(C(=N)N)sc3SC)c2)cc1`, in data set [1], the Ki turned out to be 350 nM.
In data set [1], `CSc1sc(C(=N)N)cc1S(=O)(=O)c1cccc(-c2c(C)cccc2N)c1` yielded a Ki of 20 nM.
As to `CSc1sc(C(=N)N)cc1S(=O)(=O)c1cccc(-c2ccccc2CO)c1`, the Ki in data set [1] is 120 nM.
Take `CSc1sc(C(=N)N)cc1S(=O)(=O)c1cccc(-c2c(C)cccc2C(=O)O)c1`: the Ki in data set [1] was found to be 150 nM.
On the same count and under the same terms, next, `CSc1sc(C(=N)N)cc1S(=O)(=O)c1cccc(-c2cccc(C)c2)c1`: 1850 nM; `CSc1sc(C(=N)N)cc1S(=O)(=O)c1cccc(-c2ccc(O)cc2)c1`: 190 nM.
The compound `CSc1sc(C(=N)N)cc1S(=O)(=O)c1cccc(-c2c(C)cccc2NC(=O)NCCc2nn[nH]n2)c1` showed an inhibition at 10 µM against hERG (KCNH2) of 1%. This compound also yielded a Ki in data set [1] of 64 nM.
In turn, `CSc1sc(C(=N)N)cc1S(=O)(=O)c1cccc(-c2ccc(C)cc2)c1` displayed a Ki in data set [1] of 250 nM.
The same measure, in the same setting: next, `COc1cccc(-c2cccc(S(=O)(=O)c3cc(C(=N)N)sc3SC)c2)c1`: 490 nM; `CSc1sc(C(=N)N)cc1S(=O)(=O)c1cccc(-c2cccc(O)c2)c1`: 150 nM; `CSc1sc(C(=N)N)cc1S(=O)(=O)c1cccc(-c2ccccc2Cl)c1`: 40 nM.
With `CSc1sc(C(=N)N)cc1S(=O)(=O)c1cccc(-c2c(C)cccc2NC(=O)CCCCC(=O)O)c1`, the Ki in data set [1] came out at 42 nM. This compound came in with a solubility in data set [5] of 40 µM (≈ 21.8 µg/mL).
`CSc1sc(C(=N)N)cc1S(=O)(=O)c1cccc(-c2ccccc2)c1` yielded a Ki in data set [1] of 260 nM.
Still for that read-out and setting: next, `CSc1sc(C(=N)N)cc1S(=O)(=O)c1cccc(-c2ccccc2O)c1`: 460 nM; `CSc1sc(C(=N)N)cc1S(=O)(=O)c1cccc(-c2c(C)cccc2CO)c1`: 50 nM.
`CSc1sc(C(=N)N)cc1S(=O)(=O)c1cccc(-c2c(C)cccc2NC(=O)CCCS(C)(=O)=O)c1` had a Vd in data set [2] of 2.03 L/kg. The compound also yielded a clearance in data set [3] of 130 mL/min/kg. In data set [1], this compound yielded a Ki of 14 nM. Besides, in data set [4], the half-life was 1.8 h. The solubility in data set [5] is 35 µM (≈ 19.8 µg/mL).
Regarding `CSc1sc(C(=N)N)cc1S(=O)(=O)c1cccc(-c2c(C)cccc2NC(=O)NCCCCCC(=O)O)c1`, in data set [2], the volume of distribution (Vd) was 2.65 L/kg. This compound also displayed an inhibition at 10 µM on hERG (KCNH2) of 5.8%. Besides, in data set [3], the clearance stood at 228 mL/min/kg. The Ki in data set [1] was found to be 22 nM. The half-life in data set [4] was 0.2 h. The compound also returned a solubility in data set [5] of 39 µM (≈ 22.4 µg/mL).
In turn, `CSc1sc(C(=N)N)cc1S(=O)(=O)c1cccc(-c2c(C)cccc2NC(=O)CS(C)(=O)=O)c1` had a Ki in data set [1] of 120 nM. Moreover, the solubility in data set [5] was 43 µM (≈ 23.1 µg/mL).
`CSc1sc(C(=N)N)cc1S(=O)(=O)c1cccc(-c2ccccc2C)c1` returned a Ki in data set [1] of 30 nM.
Still for that read-out and setting: next, `CSc1sc(C(=N)N)cc1S(=O)(=O)c1cccc(Br)c1`: 360 nM.
